Read-outs that look alike come from different tables or passages of the source.

For data set [1], the system named is Myzus persicae. Kind of data set: Myzus persicae - oral test. As to conditions: after 5 days; for efficacy in % (aphids killed): 20 ppm; for pest or weed control at 20 ppm: Myzus persicae, 120 h, read-out: efficacy in % (aphids killed). In kind it is in vivo. How it is done:
Solvent: 100 parts by weight of acetone
Subsequently, the plates are sealed with parafilm, which a mixed population of green peach aphids (Myzus persicae) within a second microtitre plate is able to puncture and imbibe the solution through it.
After 5 days, the efficacy in % is determined. 100% means that all the aphids have been killed; 0% means that no aphids have been killed.

For data set [2], the system named is Myzus persicae. Put plainly: Myzus persicae - spray test (Chinese cabbage leaf discs). As to conditions: 500 g/ha, after 6 days; for pest or weed control at 500 g/ha: Myzus persicae, foliar, 144 h, read-out: efficacy in % (aphids killed). In kind it is in vivo. The procedure:
Myzus persicae—Spray Test
Solvent: 78 parts by weight of acetone • • 1.5 parts by weight of dimethylformamide
Emulsifier: alkylaryl polyglycol ether
To produce a suitable preparation of active compound, 1 part by weight of active compound is dissolved using the specified parts by weight of solvent and made up with water containing an emulsi fier concentration of 1000 ppm until the desired concentration is attained. To produce further test concentrations, the formulation is diluted with emulsifier-containing water.
Discs of Chinese cabbage leaves (Brassica pekinensis) infested by all stages of the green peach aphid (Myzus persicae) are sprayed with an active compound formulation of the desired concentration.
After 6 days, the efficacy in % is determined. 100% means that all the aphids have been killed; 0% means that no aphids have been killed.

A short description of data set [3]: log P determination by HPLC on reversed-phase (C18) columns, OECD Guideline 117. In kind it is physicochemical. As to conditions: for chromatographic logP: reversed-phase (C18) HPLC column. How it is done: The log P values were determined in accordance with OECD Guideline 117 (EC Directive 92/69/EEC) by HPLC (high-performance liquid chromatography) using reversed-phase (RP) columns (C18), by the following methods:
[a] The LC-MS determination in the acidic range was carried out at pH 2.7 with 0.1% aqueous formic acid and acetonitrile (contains 0.1% formic acid) as mobile phases; linear gradient from 10% acetonitrile to 95% acetonitrile.
[b] LC-MS determination in the neutral range was carried out at pH 7.8 with 0.001 molar aqueous ammonium hydrogencarbonate solution and acetonitrile as mobile phases; linear gradient from 10% acetonitrile to 95% acetonitrile.

Where [4] appears, read: pH 2.7, HPLC, acidic range pH 2.7, 0.1% aqueous formic acid/acetonitrile, read-out: logp-acidic.
Where [5] appears, read: pH 7.8, HPLC, neutral range pH 7.8, 0.001 molar aqueous ammonium hydrogencarbonate/acetonitrile, read-out: logp-neutral.
The mark [6] stands for this setting: HPLC, acidic range pH 2.7, 0.1% aqueous formic acid/acetonitrile.
[7] abbreviates: HPLC, neutral range pH 7.8, 0.001 molar aqueous ammonium hydrogencarbonate/acetonitrile.

Turning to `CC(=O)OCc1cc(-c2ncc(C(=O)N(C)c3cccnc3)n2C)ccc1F` [Example 44], the “efficacy in % (aphids killed)” value in data set [1] and in data set [2] was 90% throughout. In data set [3] (pH 2.7), the logp-acidic is 1.39. In data set [3] (pH 7.8), this molecule showed a logp-neutral of 1.81.

With `CN(C(=O)c1cnc(-c2cccc(COC(=O)C3CC3)c2)n1C)c1cccnc1` [Example 45], the “efficacy in % (aphids killed)” value in data set [1] and in data set [2] was 90% throughout. In data set [3] (pH 2.7), this molecule yielded a logp-acidic of 1.28. Besides, in data set [3] (pH 7.8), the logp-neutral was 1.86.

For the molecule `CN(C(=O)c1cnc(-c2ccccn2)n1C)c1cccnc1` [Example 47], the pest or weed control at 20 ppm in data set [1] came out at 100%. Further, in data set [2], the pest or weed control at 500 g/ha worked out at 90%. Moreover, the chromatographic logP in data set [3] (setting [4]) came to 0.74; in data set [3] (setting [5]) it was 1.16.

As to `CN(C(=O)c1cnc(-c2cccc(C(F)F)c2)n1C)c1cccnc1` [Example 48], the “efficacy in % (aphids killed)” value in data set [1] and in data set [2] was 100% in each case. This molecule gave a logp-acidic in data set [3] (pH 2.7) of 1.22. The molecule also displayed a logp-neutral in data set [3] (pH 7.8) of 1.65.

`CN(C(=O)c1cnc(-c2cc(C(F)(F)F)cc(C(F)(F)F)c2)n1C)c1cccnc1` [Example 53]: the “efficacy in % (aphids killed)” value in data set [1] was 100%; in data set [2] it was 90%. This molecule also came in with a logp-acidic in data set [3] (pH 2.7) of 2.43. In data set [3] (pH 7.8), this molecule had a logp-neutral of 2.63.

As for `CN(C(=O)c1cnc(-c2cc(F)cc(C(F)(F)F)c2)n1C)c1cccnc1` [Example 54], the “efficacy in % (aphids killed)” value in data set [1] was found to be 100%; in data set [2], 90%. Besides, the logp-acidic in data set [3] (pH 2.7) was 1.90. In data set [3] (pH 7.8), this molecule displayed a logp-neutral of 2.14.

For `CN(C(=O)c1cnc(-c2ccc(C#N)c(C(F)(F)F)c2)n1C)c1cccnc1` [Example 55], in data set [1], the pest or weed control at 20 ppm was 100%. For the same molecule, the pest or weed control at 500 g/ha in data set [2] was determined as 90%. The chromatographic logP in data set [3] (setting [4]) was found to be 1.72; in data set [3] (setting [5]) it was 1.92.

Turning to `CN(C(=O)c1cnc(-c2cccc(CC(F)(F)F)c2)n1C)c1cccnc1` [Example 56], the “efficacy in % (aphids killed)” value in data set [1] came to 100%; in data set [2], 90%. In addition, in data set [3] (pH 7.8), the logp-neutral turned out to be 1.96.

In the case of `CN(C(=O)c1cnc(-c2cccc(C#N)c2)n1C)c1cccnc1` [Example 58], the “efficacy in % (aphids killed)” value in data set [1] and in data set [2] was 100% each time. This molecule also gave a logp-acidic in data set [3] (setting [6]) of 0.91. The molecule further displayed a logp-neutral in data set [3] (setting [7]) of 1.33.

`CN(C(=O)c1cnc(-c2ccc(Cl)c(C#N)c2)n1C)c1cccnc1` [Example 59]: the entries for the “efficacy in % (aphids killed)” value in data set [1] and in data set [2] were 100% and 90%, respectively. In data set [3] (setting [6]), this molecule showed a logp-acidic of 1.42. Moreover, in data set [3] (setting [7]), the logp-neutral is listed as 1.69.

Regarding `CN(C(=O)c1cnc(-c2cc(F)cc(C#N)c2)n1C)c1cccnc1` [Example 60], the “efficacy in % (aphids killed)” value in data set [1] stood at 100%; in data set [2], 90%. In addition, the logp-acidic in data set [3] (pH 2.7) was 1.21. In data set [3] (pH 7.8), this molecule yielded a logp-neutral of 1.52.

With `CN(C(=O)c1cnc(-c2cc(C#N)cc(C(F)(F)F)c2)n1C)c1cccnc1` [Example 61], the “efficacy in % (aphids killed)” value in data set [1] and in data set [2] was 100% each time. For the same molecule, in data set [3] (setting [6]), the logp-acidic was found to be 1.85. Besides, in data set [3] (setting [7]), the logp-neutral came out at 1.96.

Take `COc1ccc(C#N)cc1-c1ncc(C(=O)N(C)c2cccnc2)n1C` [Example 62]: the “efficacy in % (aphids killed)” value in data set [1] and in data set [2] was 100% throughout. The molecule also registered a logp-acidic in data set [3] (setting [6]) of 0.78. The molecule also had a logp-neutral in data set [3] (setting [7]) of 1.37.

On to `CN(C(=O)c1cnc(-c2ccc(F)c(C#N)c2)n1C)c1cccnc1` [Example 63], for which the “efficacy in % (aphids killed)” value is recorded as 100% in data set [1] and 90% in data set [2]. In data set [3] (setting [6]), this molecule had a logp-acidic of 1.15. Also, in data set [3] (setting [7]), the logp-neutral is given as 1.52.

As to `CN(C(=O)c1cnc(-c2cnc(N3CCOCC3)c(C#N)c2)n1C)c1cccnc1` [Example 66], the “efficacy in % (aphids killed)” value amounted to 100% in data set [1] and 90% in data set [2]. In addition, in data set [3] (pH 2.7), the logp-acidic is 1.16. In data set [3] (pH 7.8), this molecule returned a logp-neutral of 1.45.

Take `CCOc1ncc(-c2ncc(C(=O)N(C)c3cccnc3)n2C)cc1C#N` [Example 67]: the “efficacy in % (aphids killed)” value in data set [1] and in data set [2] was 100% in each case. Further, the logp-acidic in data set [3] (pH 2.7) was 1.50. In data set [3] (pH 7.8), this molecule showed a logp-neutral of 1.73.

Take `CN(C(=O)c1cnc(-c2cc(Cl)cc(C#N)c2)n1C)c1cccnc1` [Example 69]: the “efficacy in % (aphids killed)” value in data set [1] and in data set [2] was 100% throughout. This molecule also yielded a logp-acidic in data set [3] (setting [6]) of 1.52. Further, the logp-neutral in data set [3] (setting [7]) is listed as 1.74.

Consider `CN(C(=O)c1cnc(-c2cc(-c3ccccc3)no2)n1C)c1cccnc1` [Example 71], for which the pest or weed control at 20 ppm in data set [1] is 100%. For the same molecule, the pest or weed control at 500 g/ha in data set [2] was 100%. Moreover, the chromatographic logP is 1.9 in data set [3] (setting [4]) and 2.37 in data set [3] (setting [5]).

As for `CC(C)n1cc(-c2ncc(C(=O)N(C)c3cccnc3)n2C)nn1` [Example 73], the “efficacy in % (aphids killed)” value in data set [1] and in data set [2] was 100% throughout. The molecule also showed a logp-acidic in data set [3] (pH 2.7) of 0.88. In data set [3] (pH 7.8), this molecule registered a logp-neutral of 1.24.

Turning to `CN(C(=O)c1cnc(-c2cn(C)nn2)n1C)c1cccnc1` [Example 74], the pest or weed control at 20 ppm in data set [1] worked out at 100%. Further, the pest or weed control at 500 g/ha in data set [2] was 100%. The chromatographic logP amounted to 0.27 in data set [3] (setting [4]) and 0.76 in data set [3] (setting [5]).

Turning to `CCN(C(=O)c1cnc(-c2cnc(OC)c(C#N)c2)n1C)c1cccnc1` [Example 75], the pest or weed control at 20 ppm in data set [1] was determined as 100%. In data set [2], the pest or weed control at 500 g/ha is 100%. Moreover, the chromatographic logP in data set [3] (setting [4]) was 1.46; in data set [3] (setting [5]) it was 1.65.

As for `CCOc1ncc(-c2ncc(C(=O)N(CC)c3cccnc3)n2C)cc1C#N` [Example 76], the “efficacy in % (aphids killed)” value in data set [1] is 100%; in data set [2] it was 90%. Moreover, in data set [3] (pH 2.7), the logp-acidic was found to be 1.69. Besides, the logp-neutral in data set [3] (pH 7.8) was determined as 1.95.

For the molecule `CN(C(=O)c1cnc(-c2cccc3c2OCC3)n1C)c1cccnc1` [Example 79], the “efficacy in % (aphids killed)” value in data set [1] and in data set [2] was 100% in each case. Further, in data set [3] (pH 2.7), the logp-acidic turned out to be 0.7.

In the case of `CN(C(=O)c1cnc(-c2cccc3ccoc23)n1C)c1cccnc1` [Example 80], the “efficacy in % (aphids killed)” value in data set [1] and in data set [2] was 100% in each case. For the same molecule, the logp-acidic in data set [3] (pH 2.7) was 0.97. The molecule also showed a logp-neutral in data set [3] (pH 7.8) of 1.62.

On to `COc1ccccc1-c1ncc(C(=O)N(C)c2cccnc2)n1C` [Example 82], for which the “efficacy in % (aphids killed)” value in data set [1] and in data set [2] was 100% in each case. This molecule also came in with a logp-acidic in data set [3] (pH 2.7) of 0.65. The logp-neutral in data set [3] (pH 7.8) is recorded as 1.45.

As to `COc1ccc(-c2ncc(C(=O)N(C)c3cccnc3)n2C)c(OC)c1` [Example 84], the “efficacy in % (aphids killed)” value in data set [1] and in data set [2] was 100% in each case. In data set [3] (pH 2.7), this molecule had a logp-acidic of 0.8. In data set [3] (pH 7.8), the logp-neutral was found to be 1.54.

Consider `CN(C(=O)c1cnc(-c2cccc(C(F)(F)F)n2)n1C)c1cccnc1` [Example 86], for which the “efficacy in % (aphids killed)” value stood at 100% in data set [1] and 90% in data set [2]. This molecule also returned a logp-acidic in data set [3] (pH 2.7) of 1.91. This molecule came in with a logp-neutral in data set [3] (pH 7.8) of 2.04.

For `COc1ncccc1-c1ncc(C(=O)N(C)c2cccnc2)n1C` [Example 88], the “efficacy in % (aphids killed)” value in data set [1] was 100%; in data set [2], 90%. In addition, the logp-acidic in data set [3] (pH 2.7) worked out at 0.53. Also, the logp-neutral in data set [3] (pH 7.8) was determined as 1.16.

`CCOc1ccc(-c2ncc(C(=O)N(C)c3cccnc3)n2C)cn1` [Example 89]: the entries for the “efficacy in % (aphids killed)” value in data set [1] and in data set [2] were 100% and 90%, respectively. In data set [3] (pH 2.7), this molecule had a logp-acidic of 0.93. In data set [3] (pH 7.8), this molecule came in with a logp-neutral of 1.53.

On to `COc1ncc(-c2ncc(C(=O)N(C)c3cccnc3)n2C)cc1Cl` [Example 90], for which the “efficacy in % (aphids killed)” value in data set [1] is recorded as 100%; in data set [2] it was 90%. The molecule further showed a logp-acidic in data set [3] (pH 2.7) of 1.28. This molecule also returned a logp-neutral in data set [3] (pH 7.8) of 1.68.

Turning to `CSc1ncccc1-c1ncc(C(=O)N(C)c2cccnc2)n1C` [Example 91], the entries for the “efficacy in % (aphids killed)” value in data set [1] and in data set [2] were 100% and 90%, respectively. The molecule further gave a logp-acidic in data set [3] (pH 2.7) of 0.93. The molecule further gave a logp-neutral in data set [3] (pH 7.8) of 1.33.

The record behind these values is patent publication US10807968B2, “Substituted 2-(het)arylimidazolylcarboxyamides as pesticides” (Bayer CropScience Aktiengesellschaft, priority 2016, dated 2020).
